Data from US11160788B2, “Caspase-1 inhibition and uses thereof for prevention and treatment of neurological conditions” (priority 2016, dated 2021).
“Also recorded” adds a separate entry of the source.

Columns and labels:
mouse Casp11 = molecular target: T1, mouse Casp11 (Mus musculus, UniProt P70343); test: Selectivity against mouse Casp11; type: biochemical; conditions: recombinant caspases
T1 sequence (P70343 81-266 limits assumed): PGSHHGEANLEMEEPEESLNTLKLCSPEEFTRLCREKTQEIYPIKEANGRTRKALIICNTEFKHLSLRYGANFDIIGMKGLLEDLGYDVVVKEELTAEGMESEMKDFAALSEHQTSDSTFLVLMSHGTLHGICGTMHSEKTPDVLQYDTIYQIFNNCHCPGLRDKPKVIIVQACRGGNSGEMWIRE
T1 sequence (P70343 286-373 limits assumed): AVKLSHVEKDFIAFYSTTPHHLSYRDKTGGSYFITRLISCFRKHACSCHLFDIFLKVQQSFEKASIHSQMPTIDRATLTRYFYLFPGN
Method: FIG. 14: Selectivity and blood brain permeability of VX-765 and VRT-043198. (a-b) IC50 of VX-765 (a) and VRT-043198 (b) against human Casp1-10. (c-d) IC50 of VX-765 (c) and VRT-043198 (d) against mouse Casp1 and Casp11. (e) Blood brain barrier permeability and presence of VX-765 and VRT-043198 in 3 wild type and 4 J20 mice brain cortex and hippocampus and in plasma. Ratios of brain levels to plasma levels are calculated.

J20 mice = test: Aβ immunostaining, thioflavin S and ELISA, treated symptomatic J20 mice brains; type: in vivo, mouse
Source text: FIG. 11: VX-765 prevents the progression of Aβ in J20 mice. (a) Aβ immunohistographs of the stratum lacunosum molecular layer of the hippocampus and S1 cortex of pre-treated 5-month old J20 (baseline) and 8-month old vehicle- or VX-765-treated WT or J20 mice with anti-F2576 antiserum (Scale bar=50 μm). (b) Quantitative analysis comparing Aβ immunostaining density between J20+Vehicle (n=5) and J20+VX-765 (n=4) mice in the hippocampus from the pyramidal cell layer to the stratum lacunosum molecular layer (p=0.0029) and cortex (p=0.0314, unpaired t test). (c) Quantitative analysis comparing RIPA-soluble Aβ42 over total Aβ (Aβ38+Aβ40+Aβ42) levels in pre-treated 5-month old J20, 8-month old vehicle- or VX-765 treated J20 mice hippocampus (F(2,9)=6.614, p=0.0171, ANOVA, Tukey's post-hoc, * p<0.05). No ELISA signal was obtained from WT mice brains. (d) RIPA-soluble total Aβ measured by ELISA in pg/mg brain tissue. (e,f) Formic acid soluble Aβ42 over total Aβ (Aβ38+Aβ40+Aβ42) (e) and total Aβ (f) levels measured by ELISA in pg/mg brain tissue. Student t-test used to assess difference between J20+vehicle and J20+VX-765. (g,h,i) RIPA-soluble and (j,k,l) formic acid soluble Aβ38, Aβ40, and Aβ42 measured by ELISA in pg/mg brain tissue. (m) APP mRNA and protein levels and (n) insulin degrading enzyme (IDE) and neprilysin mRNA levels (o) in hippocampus and cortex.
FIG. 19: Aβ stained with Thioflavin S or anti-Aβ1-40 F25276 antiserum in mice hippocampi or cortex. (a) Comparison of anti-Aβ immunostaining and thioflavin S stained Aβ in 8 month old vehicle-treated WT and J20 and in VX-765-treated J20 brain hippocampi and cortex (after T3). (b) Anti-Aβ F25276 immunopositive staining in 8 month old vehicle-treated J20, J20/Casp1−/−, and VX-765-treated (T3) mice hippocampi. (c) Higher magnification of Aβ and Iba1 immunopositive deposits in 8 month old vehicle-treated J20, J20/Casp1^−/−, and VX-765-treated (T3) mice hippocampi.
To assess AD-like pathology, immunohistochemical analyses were performed to detect amyloid deposition (anti-AβF25276)^5,6, microglial (Iba1) activation^7, astrogliosis (GFAP), synaptophysin protein levels on coronal brain sections. Multiplex MSD ELISA was used to assess Aβ levels and 38,40, and 42 subtypes, and II-1β brain levels. RT-PCR was used to assess levels of human APP^Sw/Ind.

[1] = system: APP^WT-transfected human primary neurons; test: Neuritic beading in APPWT-transfected human primary neurons; type: cell-based
Method: FIG. 13: VX-765 protects CNS primary human neurons (HPN) against APP- or serum deprivation-mediated neuritic beading. (a) MTT assay with increasing dose of VX-765. (b) Fluorescent micrographs showing homogeneous distribution of EGFP in normal neurons and neuritic beading in APP-transfected neurons. (c) Percentage beading in APP-transfected or serum-deprived neurons treated 1 h before and continuously with stressor (Pre-treatment) or 48 h after stressor (post-beading treatment) with 25 or 50 μM VX-765 or with 5 μM Z-YVAD-fmk Casp1 peptide inhibitor. […] (d-e) HPN secreted or cellular Aβ42/total Aβ38+40+42 (d) (F(3,4)=12.73, p=0.0163, ANOVA, Dunnett's post-hoc compared to Serum+DMSO, *p<0.05), and (e) levels of secreted II-1β, IFN-γ, TNF-α, and II-6 from untreated (+S), serum deprived (−S), or serum-deprived human neurons treated with 25 or 50 μM VX-765.
EGFP-labeled human primary neurons were either APP^WT transfected or serum deprived. Two treatment strategies were employed to determine VX-765's effects on neuronal degeneration: our Pre-Treatment strategy looked at whether VX-765 could block neuronal degeneration when administered 1 hr prior to APP^WT transfection or serum deprivation, while our Reversal Treatment strategy looked at whether VX-765 could reverse degenerative effects when administered 48 hrs after APP^WT transfection or serum deprivation. Neurons displaying beaded morphology were counted with live imaging and measured as a percentage of the total number of eGFP+ neurons from 24-72 hrs after treatment. The irreversible caspase-1 inhibitor YVAD-fmk was used as positive control in our experiments. Results were obtained from averaging counts for at least 100 eGFP+ neurons per experiment in three independent neuron preparations.

Structure (SMILES): CCO[C@@H]1OC(=O)C[C@@H]1NC(=O)[C@@H]1CCCN1C(=O)[C@@H](NC(=O)c1ccc(N)c(Cl)c1)C(C)(C)C [VX-765, (S)-1-((S)-2-{[1-(4-amino-3-chloro-phenyl)-methanoyl]-amino}-3,3-dimethyl-butanoyl)-pyrrolidine-2-carboxylic acid ((2R,3S)-2-ethoxy-5-oxo-tetrahydro-furan-3-yl)-amide]
- inhibition of mouse Casp1 compared to mouse Casp11 (mouse Casp11): strongly inhibited compared to inflammatory mouse Casp11
- Aβ42 level in cortex (J20 mice; ELISA of RIPA-extracted brain proteins): reduced
- formic acid soluble Aβ38, Aβ40, Aβ42 (J20 mice; hippocampal and cortical tissues): less abundant
- RIPA soluble Aβ42 (J20 mice; hippocampus): reduced in the hippocampus
- formic acid soluble Aβ42 over total Aβ38+40+42 (J20 mice; hippocampus): also reduced
- RIPA-soluble Aβ42 over total Aβ38+40+42 (J20 mice; hippocampus and cortex): also reduced
- formic acid soluble total Aβ (J20 mice; hippocampus and cortex): strongly decreased
- deposited Aβ (thioflavin S, anti-Aβ immunostaining) (J20 mice; hippocampus and cortex, 50 mg/kg, 12 injections, vs vehicle-injected J20, 50 mg/kg): only retained rare amyloid deposits; also recorded: substantially reduced
- neuritic beading ([1]; pre-treatment 1 h before and continued, VX-765 25 and 50 μM, Z-YVAD-fmk 5 μM, 48 and 72 h): prevented neuritic beading
- reduction in neuritic beading ([1]; pre-treatment 1 hr prior, 48 hrs and 72 hrs post transfection, vs DMSO): 40%
